From patent publication US20250263416A1, “SPPL2a INHIBITORS” (Incyte Corporation, priority 2024, published 2025)
“Also recorded” adds a separate entry of the source.

Experiments:
human SPPL2a = biological target: T1, human SPPL2a (Homo sapiens, UniProt Q8TCT8); test: Nuclear translocation imaging assay for human SPPL2a (SPPL2a reporter U2OS cell line); assay type: cell-based; conditions: U2OS reporter cells, 24 h incubation
T1 construct: expressed in transfected cells; host or cells: U2OS (SPPL2a reporter cell line)
T1 sequence (Q8TCT8 26-520): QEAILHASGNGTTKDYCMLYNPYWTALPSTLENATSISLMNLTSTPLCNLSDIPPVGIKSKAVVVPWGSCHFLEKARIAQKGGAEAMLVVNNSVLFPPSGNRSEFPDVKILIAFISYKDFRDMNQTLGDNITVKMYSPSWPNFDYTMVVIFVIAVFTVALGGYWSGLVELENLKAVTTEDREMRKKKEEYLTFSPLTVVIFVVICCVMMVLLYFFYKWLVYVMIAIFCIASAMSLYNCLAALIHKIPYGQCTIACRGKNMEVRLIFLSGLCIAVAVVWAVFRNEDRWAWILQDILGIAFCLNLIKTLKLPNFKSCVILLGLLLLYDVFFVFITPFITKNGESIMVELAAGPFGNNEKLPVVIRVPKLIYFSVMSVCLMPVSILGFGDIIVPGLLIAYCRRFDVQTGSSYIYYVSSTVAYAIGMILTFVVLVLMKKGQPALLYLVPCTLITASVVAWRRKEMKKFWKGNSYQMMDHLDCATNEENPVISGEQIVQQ
Experimental: The nuclear translocation imaging assays for human SPPL2a were performed using an SPPL2a reporter U2OS cell line as previously described (Velcicky et al 2018, Zhang et al 2017). These cells stably express human SPPL2a and a doxycycline inducible eGFP TNFα (aa 1-76) NTF fusion protein (SPPL2a substrate). Both Example 1 and Example A were added at indicated concentrations and cells were incubated for 24 h, washed, and fixed. Nuclei were stained with DAPI. Images were acquired on a confocal fluorescence microscope system LSM-800 (Carl Zeiss). Image data was analyzed by using mid-section from Z-stack images of at least 10 individual cells per sample. All data is presented as mean+SEM. Statistical significance was calculated with the ANOVA test using GraphPad Prism™ 10.

MoDCs = test: DC-maturation assay (monocyte-derived dendritic cells from human PBMCs); assay type: cell-based; conditions: 24 h
Experimental: Dendritic cells are crucial players in the antigen presentation process and inflammation. […] To validate the functional relevance of SPPL2a inhibitor, a DC-maturation assay was utilized. Human PBMCs were isolated from fresh blood using Histoplaque gradients and plated overnight at 37° C. to allow monocytes to adhere. Non-adherent cells were washed off the following day and DC-differentiation media containing GM-CSF and IL-4 was added and incubated for 5 d. Immature MoDCs were separated and washed. A cocktail of maturation media with SPPL2a inhibitor (at indicated concentrations) was added to the wells and cells were incubated for 24 h. Supernatants were collected and processed to measure TNFα and IL-12 by ELISA. All data is presented as mean+SEM. For comparison of more than two groups, ANOVA was used. All statistical analysis was performed using GraphPad Prism™ 10.

[1] = system: MRL/MpJ-Faslpr/J mice, lupus-like disease; test: Mouse model of systemic lupus (SLE); assay type: in vivo
Experimental: A mouse model of SLE was used to evaluate the treatment potential of SPPL2a inhibition by Example A in vivo in female mice aged 8 weeks. The MRL/MpJ-Faslpr/J (JAX stock #000485) mice used in this study develop a spontaneously accelerated and aggressive lupus-like disease characterized by immune-mediated damage to the organs, and by the presence of circulating auto-Abs against dsDNA, which are serological hallmarks of SLE. Mice were prophylactically treated orally with Example A at 15 mg/kg and 30 mg/kg dose, twice daily after allotment into different groups starting at week 10. As a control, cyclophosphamide at 25 mg/kg dose was given intraperitoneally, twice weekly. Mice were monitored weekly for the clinical sign development, proteinuria, skin lesions and lymphadenopathy. The study was terminated by euthanizing mice at 20 weeks of age following 10 weeks of dosing. All data is presented as mean+SEM. For comparison of more than two groups, ANOVA was used. All statistical analysis was performed using GraphPad Prism™10.
Inflammatory cytokine levels (TNFα and IFNγ) and murine immunoglobulin levels (Ig) were measured using MSD® multi-spot assay kits.

[2] = system: Imiquimod (IMQ)-induced psoriasis mouse model; test: Imiquimod (IMQ)-induced psoriasis mouse model; assay type: in vivo, BALB/c female mice; conditions: 15 mg/kg PO BID
Experimental: A comparative study was performed to evaluate the efficacy of the deuterated-inhibitor Example 1 to Example A in the mouse model of psoriasis. Briefly, BALB/c female mice (7-8 week age) were shaved on the dorsal skin and 62.5 mg of IMQ cream was applied daily until day 9. Simultaneously, 15 mg of IMQ cream was applied on one ear daily until day 9. Example 1 and Example A were given orally (PO) at 15 mg/kg, BID. Mice were monitored and clinical signs of psoriasis were recorded (PSI score), both on the dorsal skin (erythema, scaling & thickness) and on the IMQ-applied ear (thickness). All data is presented as mean+SEM. For comparison of more than two groups, ANOVA was used. Pearson product moment correlation was used to test for correlations. All statistical analysis was performed using GraphPad Prism™ 10.

[3] = both doses tested (15 and 30 mg/kg orally twice daily)
[4] = both treated groups (15 and 30 mg/kg BID)

CNC(=O)c1nc(C)c(C(=O)NC[C@@H](C)C(=O)N[C@@H]2C(=O)N3CCCN3Cc3ccccc32)s1 [Example A, N^2,4-dimethyl-N^5—((R)-2-methyl-3-oxo-3-(((S)-11-oxo-2,3,10,11-tetrahydro-1H,5H-benzo[d]pyrazolo[1,2-a][1,2]diazepin-10-yl)amino)propyl)thiazole-2,5-dicarboxamide]
inhibition of nuclear translocation of TNFα-GFP (human SPPL2a): inhibited; also recorded: comparable and significant TNFα-GFP inhibition of nuclear translocation
IL-12 secretion (MoDCs; MoDC supernatants, ELISA): significantly decreased
TNFα secretion (MoDCs; MoDC supernatants, ELISA): significantly decreased
MoDC maturation (MoDCs; compared to the stimulation only condition): significantly decreased
TNFα levels in mouse serum ([1]; 15 mg/kg BID): No significant changes
Levels of IgA ([1]; 15 mg/kg dose): significantly down regulated
kidney pathology ([1]; 15 mg/kg, compared to vehicle control): did not exhibit a test article-related change compared to the vehicle control except in the blood vessels
TNFα levels in mouse serum ([1]; 30 mg/kg BID): significantly inhibits
antibody production in mouse serum ([1]; 30 mg/kg BID): significantly inhibits
Levels of IgA ([1]; 30 mg/kg dose): trended lower
kidney pathology: membranoproliferative nephritis, tubular dilation and casts, interstitial inflammation, fibrosis, blood vessel necrosis, and inflammation ([1]; 30 mg/kg oral twice daily): statistically significant decrease
Serum IFNγ levels ([1]; both doses (15 and 30 mg/kg BID)): modest increase
proteinuria [1, 3]: effectively reduced; also recorded: Significant reduction
skin lesion formation / skin lesional scores [1, 3]: effectively reduced; also recorded: Significant reduction
IgG1 [1, 4]: significantly lower
IgG2a [1, 4]: significantly lower
IgG2b [1, 4]: significantly lower
IgG3 [1, 4]: significantly lower
IgM [1, 4]: significantly lower
anti ds-DNA antibody production ([1]; compared to vehicle control): significantly reduced
lymphadenopathy ([1]; highest dose tested): significantly reduced; also recorded: Significant reduction
dorsal PSI scores [2]: alleviate
ear thickness measurements [2]: alleviate
clinical signs of psoriasis disease ([2]; compared to vehicle group): significantly reduced
Mouse IL-12 level in plasma ([2]; terminal day): significant reduction
Mouse TNFα level in plasma ([2]; terminal day): significant reduction
